Results on 13 molecules are retold here after patent publication US20060234909A1, “Compositions and methods for increasing drug efficiency” (priority 2003, published 2006).

The target of data set [1] is T1, Human Src (Homo sapiens, UniProt P12931).
T1 construct: purchased Upstate (Charlottesville, Va.) 14-326
Kind of data set: Src kinase assay (PKLight ATP utilization, substrate phosphorylation as % of parent peptide). It is filed as biochemical. As for the experimental part:
Another test may involve monitoring the consumption of ATP. For example, ATP concentrations at time 0 or after 4 hour incubation may be monitored by luciferase reaction (PKLight kit obtained from Cambrex Corporation, One Meadowlands Plaza, East Rutherford, N.J. 07073), which generate a luminescence readout in the presence of ATP. Assays are initiated by mixing a kinase and a peptide in the presence of 40 μM ATP. After 4 hour of incubation at 30° C., PKLight reagent is added and mixed well, and luminescence readout measured. The rate of peptide phosphorylation is then directly related to the rate of decrease in the observed luminescence. Based on the first test, linkers of appropriate lengths and peptides with an effective amount of kinase activity which may be expected to be retained in the drug conjugate may be found.
Human Src (#14-326) and Akt (#14-276) kinases were purchased from Upstate (Charlottesville, Va.). Kinase reactions were carried out in 50 μl kinase reaction cocktail (25 mM Tris-HCl, pH 7.5, 5 μM β-glycerophosphate, 2 mM DTT, 0.1 mM Na3VO4, 10 mM MgCl2, 1 mg/ml BSA, […], 0.5 to 1.0 units enzyme). Substrates (peptide or drug-peptide conjugate in […]) were added (25, 50 and 100 μM) and the reaction was incubated for 2-5 hours at 30° C. PKLight reagent (23 μl) (Cambrex BioSciences, Rockland, Me.) was mixed with […] of the above kinase reaction and ATP utilization relative to no substrate and no ATP controls was determined by measuring luminescence with a SpectraMax Gemini EM plate reader (Molecular Devices, Sunnyvale, Calif.). Peptide substrates for Src and Akt have been described. For examples, see Lou et al. Letters in Peptide Science, 2, 289-296 (1995); Lou et al. Bioorganic & Medicinal Chemistry, 4, 677-682 (1996); Alessi et al. FEBS Letters, 399, 333-338 (1996). Substrate phosphorylation potential was determined from the linear portion of the substrate concentration dose response as a percentage of the activity observed with the parent peptide used for drug conjugation.

For data set [2], the system named is tubulin. Nature of the data set: Fluorescence-based tubulin polymerization assay (MPA; enhancement for paclitaxel, inhibition for vinblastine). It is filed as biochemical. The source says:
Drug-linker constructs may further be screened using functional assays predictive of biological activity. […] Tubulin assembly or inhibition thereof may be monitored by fluorescence using the CytoDYNAMIX Screen™ 10 kit available from Cytoskeleton (1830 S. Acoma St., Denver, Colo.). […] Emission is monitored at 405 nm with excitation at 360 nm. […] Tubulin assembly or inhibition may also be monitored by light scattering which is approximated by the apparent absorption at 350 nm. For paclitaxel drug conjugates BSA is employed to prevent aggregation and glycerol, which is a tubulin polymerization enhancer, is omitted from the kit to increase the signal to noise ratio.
The assay kit (#BK011) was purchased from Cytoskeleton (Denver, Colo.). The assays were carried out according to the manufacturer's instructions, except that 1 mg/ml BSA (Sigma #A3059) was included in all assays. […] Parent drugs and conjugates were tested at 0.75, 1.5, 3 and 10 micromolar final concentration and results represent a comparison of conjugate and parent drug curves obtained from the linear range of the dose responses.
(±SD) represent the average of all tests carried out for all lots of a given compound.

Data set [3] deals with MCF-7 breast carcinoma. Nature of the data set: Cytotoxicity assay (monolayer), MCF-7.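 Note: cells treated 72 h with 6-8 compound doses versus DMSO vehicle controls, EC50 fitted by 4-parameter dose-response curves, averaged across all tests and lots.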 It is filed as cell-based. The conditions noted are these: MCF7, ML (monolayer); read-out: MCF7 (EC50 Ave) ML.
In data set [4] the test system is HT-29 colorectal carcinoma. Kind of data set: Cytotoxicity assay (monolayer), HT-29.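 Note: monolayer cultures tested in triplicate, compound exposure for three days against DMSO vehicle controls, EC50 fitted from dose-response curves and averaged across all tests and lots.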 It is filed as cell-based. To be noted: HT29, ML (monolayer); read-out: HT29 (EC50 Ave) ML.
Data set [5] has as its system HUVEC. Kind of data set: Cytotoxicity assay (monolayer), HUVEC. It is filed as cell-based. To be noted: ML (monolayer), read-out: HUVEC (EC50 Ave) ML.
Data set [6] relates to Normal human foreskin fibroblasts (HFF). The conditions noted are these: read-out: HFF (EC50 Ave) ML; HFF, ML (monolayer).
The test system of data set [7] is MCF-7 cells. The conditions noted are these: read-out: MCF7 (EC50 Ave) SA; MCF7, SA (soft agar).
Data set [8] has as its system HT-29 cells. To be noted: read-out: HT29 (EC50 Ave) SA; HT29, SA (soft agar).

Primed or numbered codes have the meaning given here. * marks the point of attachment. 10Ca‑PXL = paclitaxel conjugated at C10 via a carbamate; PEG(13) = PEG13 linker; Piv = CC(C)(C)C(=O)* Bounds are passed on as bounds.

In the case of “CBz-E(Bzl)YIFGSFK-PEG(11)-3Am-VBL (CBz-Glu(Bzl) N-terminal; PEG(11); vinblastine conjugate)”, in data set [1], the “Average src kinase activity” value is given as “C (C>40)”. Also, the “Ave. MPA Act.” value in data set [2] is on record as “B (B=50-80)”. Further, the EC50 in data set [3], in data set [4], in data set [5], in data set [6], in data set [7] and in data set [8] was > 100 nM in each case.

With `CC[C@]1(O)C[C@@H]2CN(CCc3c([nH]c4ccccc34)[C@@](C(=O)OC)(c3cc4c(cc3OC)N(C)[C@H]3[C@@](O)(C(=O)OC)[C@H](O)[C@]5(CC)C=CCN6CC[C@]43[C@@H]65)C2)C1` [Desacetyl vinblastine], the “Ave. MPA Act.” value in data set [2] is “C (C>80)”. Further, the half-maximal effective concentration (EC50) in data set [3], in data set [4], in data set [5], in data set [6], in data set [7] and in data set [8] was < 20 nM each time.

In the case of “Pv-EYIYGSFR-PEG(13)-10Ca-PXL (Piv-EYIYGSFR-{PEG(13)-10Ca‑PXL})”, the “Average src kinase activity” value in data set [1] is recorded as “B (B=20-40)”. In addition, the “Ave. MPA Act.” value in data set [2] is given as “B (B=50-80)”. The EC50 in data set [3], in data set [4], in data set [5], in data set [6], in data set [7] and in data set [8] was > 100 nM in each case.

`CC(=O)O[C@H]1C(=O)[C@]2(C)[C@@H](OC(=O)NCCCCCCN)C[C@H]3OC[C@@]3(OC(C)=O)[C@H]2[C@H](OC(=O)c2ccccc2)[C@]2(O)C[C@H](OC(=O)[C@H](O)[C@@H](NC(=O)c3ccccc3)c3ccccc3)C(C)=C1C2(C)C` [PXL-7Ca-ALK(6)-NH2]: in data set [2], the “Ave. MPA Act.” value is “A (A<50)”. The EC50 was 100 to 1000 nM in data set [3]; < 20 nM in data set [4]; < 20 nM in data set [5]; < 20 nM in data set [6]; < 20 nM in data set [7]; < 20 nM in data set [8].

Take `CC(=O)O[C@@]12CO[C@@H]1C[C@H](O)[C@@]1(C)C(=O)[C@H](OC(=O)CCCCCCNC(=O)OCc3ccccc3)C3=C(C)[C@@H](OC(=O)[C@H](O)[C@@H](NC(=O)c4ccccc4)c4ccccc4)C[C@@](O)([C@@H](OC(=O)c4ccccc4)[C@H]21)C3(C)C` [PXL-10Es-Alk(6)-NH(Z)]: the “Ave. MPA Act.” value in data set [2] is given as “A (A<50)”. Also, the 50% effective concentration (EC50) in data set [3], in data set [4], in data set [5], in data set [6], in data set [7] and in data set [8] was < 20 nM throughout.

With `CC(=O)O[C@@]12CO[C@@H]1C[C@H](O)[C@@]1(C)C(=O)[C@H](OC(=O)CCCCCN)C3=C(C)[C@@H](OC(=O)[C@H](O)[C@@H](NC(=O)c4ccccc4)c4ccccc4)C[C@@](O)([C@@H](OC(=O)c4ccccc4)[C@H]21)C3(C)C` [PXL-10Es-ALK(5)-NH2], in data set [2], the “Ave. MPA Act.” value is given as “B (B=50-80)”. Also, the EC50 in data set [3], in data set [4], in data set [5], in data set [6], in data set [7] and in data set [8] was < 20 nM in each case.

In the case of `CC[C@]1(O)C[C@@H]2CN(CCc3c([nH]c4ccccc34)[C@@](C(=O)OC)(c3cc4c(cc3OC)N(C)[C@H]3[C@@](O)(C(=O)NCCCCCCN)[C@H](O)[C@]5(CC)C=CCN6CC[C@]43[C@@H]65)C2)C1` [VBL-3Am-ALK(6)-NH2], the “Ave. MPA Act.” value in data set [2] is recorded as “C (C>80)”. For the same molecule, the concentration giving a half-maximal response (EC50) in data set [3], in data set [4], in data set [5], in data set [6], in data set [7] and in data set [8] was < 20 nM each time.

`CC[C@]1(O)C[C@@H]2CN(CCc3c([nH]c4ccccc34)[C@@](C(=O)OC)(c3cc4c(cc3OC)N(C)[C@H]3[C@@](O)(C(=O)NCCCCCCCCCCCCNC(=O)OC(C)(C)C)[C@H](O)[C@]5(CC)C=CCN6CC[C@]43[C@@H]65)C2)C1` [VBL-3Am-ALK(12)-NH(B)]: the “Ave. MPA Act.” value in data set [2] was “A (A<50)”. The EC50 in data set [3] is 20 to 100 nM; in data set [4], 100 to 1000 nM; in data set [5], < 20 nM; in data set [6] it was < 20 nM; in data set [7], < 20 nM; in data set [8] it was < 20 nM.

As for `CC[C@]1(O)C[C@@H]2CN(CCc3c([nH]c4ccccc34)[C@@](C(=O)OC)(c3cc4c(cc3OC)N(C)[C@H]3[C@@](O)(C(=O)NCCCCCCCCN)[C@H](O)[C@]5(CC)C=CCN6CC[C@]43[C@@H]65)C2)C1` [VBL-3Am-ALK(8)-NH2], the “Ave. MPA Act.” value in data set [2] is “B (B=50-80)”. Besides, the EC50 in data set [3], in data set [4], in data set [5], in data set [6], in data set [7] and in data set [8] was < 20 nM each time.

As to `CC[C@]1(O)CC2CN(CCc3c([nH]c4ccccc34)[C@@](C(=O)OC)(c3cc4c(cc3OC)N(C)[C@H]3C(O)(C(=O)NCCOCCOCCOCCN)[C@H](O)[C@]5(CC)C=CCN6CCC43[C@@H]65)C2)C1` (stereo partly drawn) [VBL-3Am-PEG(11)-NH2], the “Ave. MPA Act.” value in data set [2] is “B (B=50-80)”. Also, the EC50 in data set [3] was 20 to 100 nM; in data set [4] it was 20 to 100 nM; in data set [5], < 20 nM; in data set [6], < 20 nM; in data set [7], < 20 nM; in data set [8], < 20 nM.

For the molecule `CC[C@]1(O)C[C@@H]2CN(CCc3c([nH]c4ccccc34)[C@@](C(=O)OC)(c3cc4c(cc3OC)N(C)[C@H]3[C@@](O)(C(=O)NCCCCCCNC(=O)OC(C)(C)C)[C@H](O)[C@]5(CC)C=CCN6CC[C@]43[C@@H]65)C2)C1` [VBL-3Am-ALK(6)-NH(B)], in data set [2], the “Ave. MPA Act.” value is reported as “A (A<50)”. Further, the EC50 in data set [3], in data set [4], in data set [5], in data set [6], in data set [7] and in data set [8] was < 20 nM each time.

For the molecule `C=CCOC(=O)O[C@@H](C(=O)O[C@H]1C[C@@]2(O)[C@@H](OC(=O)c3ccccc3)[C@@H]3[C@]4(OC(C)=O)CO[C@@H]4C[C@H](O)[C@@]3(C)C(=O)[C@H](OC(C)=O)C(=C1C)C2(C)C)[C@@H](NC(=O)c1ccccc1)c1ccccc1` [PXL-2′Alloc], the “Ave. MPA Act.” value in data set [2] is listed as “A (A<50)”. In addition, the EC50 in data set [3], in data set [4], in data set [5], in data set [6], in data set [7] and in data set [8] was < 20 nM in each case.

With `CC[C@]1(O)C[C@@H]2CN(CCc3c([nH]c4ccccc34)[C@@](C(=O)OC)(c3cc4c(cc3OC)N(C)[C@H]3[C@@](O)(C(=O)NN)[C@H](O)[C@]5(CC)C=CCN6CC[C@]43[C@@H]65)C2)C1` [Desacetylvinblastine monohydrazine], the “Ave. MPA Act.” value in data set [2] is on record as “C (C>80)”. Besides, the 50% effective concentration (EC50) in data set [3], in data set [4], in data set [5], in data set [6], in data set [7] and in data set [8] was < 20 nM each time.

The term EC50 denotes the concentration giving half of the maximal effect.
